Patent US20240116985A1, “STAPLED PEPTIDES AND METHODS THEREOF” (priority 2020, published 2024)
Read-outs that look alike come from different tables or passages of the source.

Legend:
[1] = target: T1, beta-catenin/TCF4 engagement (Homo sapiens, UniProt P35222); assay: Nano-BRET target engagement assay (B-cat-Halo & TCF4-Luc in HEK293 cells); format: cell-based; conditions: read-out: NanoBRET Abs IC50
T1 construct: expressed in transfected cells; host or cells: HEK293
T1 sequence (P35222 1-781): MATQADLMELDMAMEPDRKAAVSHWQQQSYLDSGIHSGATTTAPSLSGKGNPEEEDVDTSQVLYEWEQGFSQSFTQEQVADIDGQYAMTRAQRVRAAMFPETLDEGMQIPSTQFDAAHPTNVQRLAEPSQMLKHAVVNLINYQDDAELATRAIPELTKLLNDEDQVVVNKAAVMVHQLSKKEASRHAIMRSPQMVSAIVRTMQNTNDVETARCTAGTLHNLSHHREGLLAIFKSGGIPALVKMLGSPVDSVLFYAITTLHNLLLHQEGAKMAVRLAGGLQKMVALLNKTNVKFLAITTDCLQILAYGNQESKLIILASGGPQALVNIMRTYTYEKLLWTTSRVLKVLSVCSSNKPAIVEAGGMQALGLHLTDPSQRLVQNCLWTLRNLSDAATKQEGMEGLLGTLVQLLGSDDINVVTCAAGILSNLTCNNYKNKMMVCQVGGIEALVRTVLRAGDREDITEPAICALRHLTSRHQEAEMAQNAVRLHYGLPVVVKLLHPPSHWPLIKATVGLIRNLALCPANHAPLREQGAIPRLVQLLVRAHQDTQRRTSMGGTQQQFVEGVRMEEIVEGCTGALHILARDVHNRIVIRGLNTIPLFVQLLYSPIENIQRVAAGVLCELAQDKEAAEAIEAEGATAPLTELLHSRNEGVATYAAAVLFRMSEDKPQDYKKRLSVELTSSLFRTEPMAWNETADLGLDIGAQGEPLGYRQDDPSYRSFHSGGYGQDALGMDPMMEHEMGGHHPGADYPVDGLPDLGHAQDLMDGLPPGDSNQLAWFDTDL

[2] = target: T2, full-length beta-Catenin (Uniprot ID P35222) (Homo sapiens, UniProt P35222); assay: Fluorescence polarization IC50 (beta-catenin / 5FAM-TCF4 10-53 competition); format: binding; conditions: fluorescence polarization; read-out: beta-Catenin FP IC50
T2 construct: 10 nM full-length beta-Catenin (Uniprot ID P35222)
T2 sequence (P35222 1-781): T1 sequence (P35222 1-781)

SMILES	IC50 ([1]; absolute IC50)	IC50 [2]	IC50 [1]
CC(=O)N1CCC[C@]12CCCCCCC1(CCCCCCCCOC(=O)N3CC[C@@](C(=O)N[C@@H](Cc4ccccc4)C(=O)N[C@@H](Cc4csc5ccccc45)C(=O)N[C@@H](CCC(N)=O)C(N)=O)(C3)NC(=O)[C@H](CC(C)C)NC(=O)[C@H](Cc3ccccc3)NC(=O)[C@H](C)NC(=O)[C@H](C)NC(=O)[C@H](CN(CC(=O)O)CC(F)(F)F)NC(=O)[C@H](CC(=O)O)NC1=O)NC(=O)[C@H](CC(C)(C)C)NC(=O)[C@H](CC(=O)O)NC2=O (stereo partly drawn) [I-1711, Ac-PL3-Asp-Npg-B5-Asp-TfeGA-Ala-Ala-Phe-Leu-PyrS2-Phe-BztA-Gln-NH2]	33300 nM	232 nM	–
CC(=O)N1CCC[C@]12CC=CCCCC1(CCCC=CCCCOC(=O)N3CC[C@@](C(=O)N[C@@H](Cc4ccsc4)C(=O)N[C@@H](Cc4csc5ccccc45)C(=O)N[C@@H](CCC(N)=O)C(N)=O)(C3)NC(=O)[C@H](CC(C)C)NC(=O)[C@H](Cc3ccccc3)NC(=O)[C@H](C)NC(=O)[C@H](C)NC(=O)[C@H](CNc3ncccc3C(=O)O)NC(=O)[C@H](CC(=O)O)NC1=O)NC(=O)[C@H](CC(C)(C)C)NC(=O)[C@H](CC(=O)O)NC2=O (stereo partly drawn) [I-1845, Ac-PL3-Asp-Npg-B5-Asp-[2Nic]Dap-Ala-Ala-Phe-Leu-PyrS2-3Thi-BztA-Gln-NH2]	6300 nM	30 nM	–
CC(=O)N1CCC[C@]12CC=CCCCC1(CCCC=CCCCOC(=O)N3CC[C@@](C(=O)N[C@@H](Cc4ccsc4)C(=O)N[C@@H](Cc4csc5ccccc45)C(=O)N[C@@H](CCC(N)=O)C(N)=O)(C3)NC(=O)[C@H](CC(N)=O)NC(=O)[C@H](Cc3ccccc3)NC(=O)[C@H](C)NC(=O)[C@H](C)NC(=O)[C@H](Cc3ccc(-c4nnn[nH]4)cc3)NC(=O)[C@H](CC(=O)O)NC1=O)NC(=O)[C@H](CC(C)(C)C)NC(=O)[C@H](CC(=O)O)NC2=O (stereo partly drawn) [I-1579, Ac-PL3-Asp-Npg-B5-Asp-4TzF-Ala-Ala-Phe-Asn-PyrS2-3Thi-BztA-Gln-NH2]	> 20000 nM	39 nM	–
CC(=O)N1CCC[C@]12CC=CCCCC1(CCCC=CCCCOC(=O)N3CC[C@@](C(=O)N[C@@H](Cc4ccccc4Cl)C(=O)N[C@@H](Cc4csc5ccccc45)C(=O)N[C@@H](CO)C(N)=O)(C3)NC(=O)[C@H](CC(C)C)NC(=O)[C@H](Cc3ccccc3)NC(=O)[C@H](C)NC(=O)[C@H](C)NC(=O)[C@H](Cc3cccc(C(=O)O)c3)NC(=O)[C@H](CC(=O)O)NC1=O)NC(=O)[C@H](CC(C)(C)C)NC(=O)[C@H](CC(N)=O)NC2=O (stereo partly drawn) [I-1853, Ac-PL3-Asn-Npg-B5-Asp-3COOHF-Ala-Ala-Phe-Leu-PyrS2-2C1F-BztA-Ser-NH2]	–	114 nM	16300 nM
CCN(CC(=O)O)C[C@@H]1NC(=O)[C@H](CC(=O)O)NC(=O)C2(CCCC=CCCCCCC[C@@](C)(C(=O)N[C@@H](Cc3ccsc3)C(=O)N[C@@H](Cc3csc4ccccc34)C(=O)N[C@@H](CCC(N)=O)C(N)=O)NC(=O)[C@H](CC(N)=O)NC(=O)[C@H](Cc3ccccc3)NC(=O)[C@H](C)NC(=O)[C@H](C)NC1=O)CCCC=CC[C@]1(CCCN1C(C)=O)C(=O)N[C@@H](CC(=O)O)C(=O)N[C@@H](CC(C)(C)C)C(=O)N2 (stereo partly drawn) [I-1627, Ac-PL3-Asp-Npg-B5-Asp-[Et]GA-Ala-Ala-Phe-Asn-S8-3Thi-BztA-Gln-NH2]	> 20000 nM	57 nM	–
CC(=O)N1CCC[C@]12CCCCC1(CCCCCCCCOC(=O)N3CC[C@](C(=O)N[C@@H](Cc4ccsc4)C(=O)N[C@@H](Cc4csc5ccccc45)C(=O)N[C@@H](CCC(N)=O)C(N)=O)(C3)NC(=O)[C@H](CC(C)C)NC(=O)[C@H](Cc3ccccc3)NC(=O)[C@H](C)NC(=O)[C@H](C)NC(=O)[C@H](CC(=O)O)NC(=O)[C@H](CC(=O)O)NC1=O)NC(=O)[C@H](CC(C)(C)C)NC(=O)[C@H](CC(=O)O)NC2=O (stereo partly drawn) [I-2162, Ac-PL3-Asp-Npg-B3-Asp-Asp-Ala-Ala-Phe-Leu-PyrS4-3Thi-BztA-Gln-NH2]	–	1160 nM	> 20000 nM
CC(=O)N1CCC[C@]12CC=CCCCC1(CCCC=CCOC(=O)N3CC(C(=O)N[C@@H](Cc4ccsc4)C(=O)N[C@@H](Cc4csc5ccccc45)C(=O)N[C@@H](CCC(N)=O)C(N)=O)(C3)NC(=O)[C@H](CC(C)C)NC(=O)[C@H](Cc3ccccc3)NC(=O)[C@H](C)NC(=O)[C@H](C)NC(=O)[C@H](CC(=O)O)NC(=O)[C@H](CC(=O)O)NC1=O)NC(=O)[C@H](CC(C)(C)C)NC(=O)[C@H](CC(=O)O)NC2=O (stereo partly drawn) [I-1828, Ac-PL3-Asp-Npg-B5-Asp-Asp-Ala-Ala-Phe-Leu-Az-3Thi-BztA-Gln-NH2]	> 20000 nM	264 nM	–

These reach a lower IC50 [2]. Values come first.

IC50 ([1]; absolute IC50)	IC50 [2]	IC50 [1]	SMILES
–	26 nM	> 20000 nM	CC(=O)N1CCC[C@]12CC=CCCCC1(CCCC=CCCCOC(=O)N3CC[C@@](C(=O)N[C@@H](Cc4ccsc4)C(=O)N[C@@H](Cc4csc5ccccc45)C(=O)N[C@@H](CCC(N)=O)C(N)=O)(C3)NC(=O)[C@H](Cn3cc(CN4CCOCC4)nn3)NC(=O)[C@H](Cc3ccccc3)NC(=O)[C@H](C)NC(=O)[C@H](C)NC(=O)[C@H](CN(CC(=O)O)CC(F)(F)F)NC(=O)[C@H](CC(=O)O)NC1=O)NC(=O)[C@H](CC(C)(C)C)NC(=O)[C@H](CC(=O)O)NC2=O (stereo partly drawn) [I-1866, Ac-PL3-Asp-Npg-B5-Asp-TfeGA-Ala-Ala-Phe-[MorphCH2]TriAzDap-PyrS2-3Thi-BztA-Gln-NH2]
54500 nM	24 nM	–	CC(=O)N1CCC[C@]12CC=CCCCC1(CCCC=CCCCOC(=O)N3CC[C@@](C(=O)N[C@@H](Cc4ccsc4)C(=O)N[C@@H](Cc4ccc5ccccc5c4)C(=O)N[C@@H](CCC(N)=O)C(N)=O)(C3)NC(=O)[C@H]([C@@H](C)O)NC(=O)[C@H](Cc3ccccc3)NC(=O)[C@H](C)NC(=O)[C@H](C)NC(=O)[C@H](CC(=O)O)NC(=O)[C@H](CC(=O)O)NC1=O)NC(=O)[C@H](CC(C)(C)C)NC(=O)[C@H](CC(=O)O)NC2=O (stereo partly drawn) [I-1233, Ac-PL3-Asp-Npg-B5-Asp-Asp-Ala-Ala-Phe-Thr-PyrS2-3Thi-2NapA-Gln-NH2]
23400 nM	14 nM	–	CC(=O)N1CCC[C@]12CC=CCCCC1(CCCC=CCCCOC(=O)N3CC[C@@](C(=O)N[C@@H](Cc4ccsc4)C(=O)N[C@@H](Cc4csc5ccccc45)C(=O)N[C@@H](CCC(N)=O)C(N)=O)(C3)NC(=O)[C@H](CC(C)C)NC(=O)[C@H](Cc3ccccc3)NC(=O)[C@H](C)NC(=O)[C@H](C)NC(=O)[C@H](CC(=O)O)NC(=O)[C@H](CC(=O)O)NC1=O)NC(=O)[C@H](CC(C)(C)C)NC(=O)[C@H](CC(N)=O)NC2=O (stereo partly drawn) [I-1221, Ac-PL3-Asn-Npg-B5-Asp-Asp-Ala-Ala-Phe-Leu-PyrS2-3Thi-BztA-Gln-NH2]
> 20000 nM	12 nM	–	CC(=O)N1CCC[C@]12CC=CCCCC1(CCCC=CCCCOC(=O)N3CC[C@@](C(=O)N[C@@H](Cc4ccccc4Cl)C(=O)N[C@@H](Cc4csc5ccccc45)C(=O)N[C@@H](CCC(N)=O)C(N)=O)(C3)NC(=O)[C@H](CO)NC(=O)[C@H](Cc3ccccc3)NC(=O)[C@H](C)NC(=O)[C@H](CC(C)C)NC(=O)[C@H](CC(=O)O)NC(=O)[C@H](CC(=O)O)NC1=O)NC(=O)[C@H](Cc1ccccc1)NC(=O)[C@H](CC(=O)O)NC2=O (stereo partly drawn) [I-1153, Ac-PL3-Asp-Phe-B5-Asp-Asp-Leu-Ala-Phe-Ser-PyrS2-2C1F-BztA-Gln-NH2]
2700 nM	9 nM	–	CC(=O)N1CCC[C@]12CC=CCCCC1(CCCC=CCCCOC(=O)N3CC[C@@](C(=O)N[C@@H](Cc4ccsc4)C(=O)N[C@@H](Cc4ccc(C)c(C)c4)C(=O)N[C@@H](C)C(N)=O)(C3)NC(=O)[C@H](C(C)C)NC(=O)[C@H](Cc3ccccc3)NC(=O)[C@H](C)NC(=O)[C@H](CCC(N)=O)NC(=O)[C@H](Cc3cccc(C(=O)O)c3)NC(=O)[C@H](CC(=O)O)NC1=O)NC(=O)[C@H](CC(C)(C)C)NC(=O)[C@H](CC(=O)O)NC2=O (stereo partly drawn) [I-2292, Ac-PL3-Asp-Npg-B5-Asp-3COOHF-Gln-Ala-Phe-Val-PyrS2-3Thi-34MeF-Ala-NH2]
–	6 nM	12900 nM	CC(=O)N1CCC[C@]12CC=CCCCC1(CCCC=CCCCOC(=O)N3CC[C@@](C(=O)N[C@@H](Cc4ccsc4)C(=O)N[C@@H](Cc4csc5ccccc45)C(=O)N[C@@H](CCC(N)=O)C(N)=O)(C3)NC(=O)[C@H](CCC(=O)N3CCNCC3)NC(=O)[C@H](Cc3ccccc3)NC(=O)[C@H](C)NC(=O)[C@H](C)NC(=O)[C@H](CN(CC(=O)O)CC(F)(F)F)NC(=O)[C@H](CC(=O)O)NC1=O)NC(=O)[C@H](CC(C)(C)C)NC(=O)[C@H](CC(=O)O)NC2=O (stereo partly drawn) [I-1941, Ac-PL3-Asp-Npg-B5-Asp-TfeGA-Ala-Ala-Phe-[Ppz]GlnR-PyrS2-3Thi-BztA-Gln-NH2]
> 20000 nM	5 nM	–	CC(=O)N1CCC[C@]12CC=CCCCC1(CCCC=CCCCOC(=O)N3CC[C@@](C(=O)N[C@@H](Cc4ccsc4)C(=O)N[C@@H](Cc4csc5ccccc45)C(=O)N[C@@H](CCC(N)=O)C(N)=O)(C3)NC(=O)[C@H](CC(C)C)NC(=O)[C@H](Cc3ccccc3)NC(=O)[C@H](C)NC(=O)[C@H](C)NC(=O)[C@H](CC(=O)O)NC(=O)[C@H](CC(=O)O)NC1=O)NC(=O)[C@H](Cc1ccc(O)cc1)NC(=O)[C@H](CC(=O)O)NC2=O (stereo partly drawn) [I-1511, Ac-PL3-Asp-Tyr-B5-Asp-Asp-Ala-Ala-Phe-Leu-PyrS2-3Thi-BztA-Gln-NH2]
